Results: patent publication EP3271365B1, “BI[…] AGENTS CONTAINING THE CTI PHARMACOPHORE” (Pfizer Inc., priority 2015, dated 2016)

Key:
Experiment in all cases: Cytotoxicity assay for payloads (MTS cell viability)
Type in all cases: cell-based
HL60 (leukemia) = settings: Homo sapiens, HL-60, 96 h, HL60 cells, incubated four days, read-out: Free Payload Potencies HL60 (IC50)
Method: (§1) Cancer cell lines were obtained from ATCC (Manassas, VA). N87 (human gastric carcinoma derived from metastatic liver site). HL60 (leukemia) and MDA-MB-361 DYT2 (human breast carcinoma MDA-MB-361) were grown in RPMI 1640 media . All media were supplemented with 10% fetal bovine serum, 1% sodium pyruvate, and 1% L-glutamine (Invitrogen, Grand Island, NY). Human umbilical vein endothelial cells (HUVEC) were obtained from Lonza (Allendale, NJ) and maintained in EGM2 media supplemented with EGM-2 SingleQuots (Lonza # CC-4176). All cells were maintained in a humidified incubator (37°C, 5% CO2).
(§2) Cells in 100 µl medium were cultured in a 96-well plate. Cancer cell lines treated with the indicated compounds by adding 50 µl of 3X stocks in duplicate at 10 concentrations. Cells were incubated with compounds for four days, then 30 µl of CellTiter® 96 AQueous One MTS Solution (Promega Cat # G3582) was added to the cells, incubated 1.5 hr at 37°C, then absorbance measured at 490 nm on a Victor plate reader (Perkin Elmer, Waltham, MA). Relative cell viability was determined as a percentage of untreated control wells. IC50 values were calculated using four parameter logistic model #203 with XLfit v4.2 (IDBS, Guildford, Surry, UK).

[1] = system: N87 (human gastric carcinoma derived from metastatic liver site); settings: 96 h, N87 cells, incubated four days, read-out: Free Payload Potencies N87 (IC50)
Method: as §1, §2

[2] = system: MDA-MB-361 DYT2 (human breast carcinoma MDA-MB-361); settings: 96 h, MDA-MB-361 DYT2 cells, incubated four days, read-out: Free Payload Potencies DYT2 (IC50)
Method: as §1, §2

Row | Compound | IC50 (HL60 (leukemia)) [nM] | IC50 [1] [nM] | IC50 [2] [nM]
1 | CC(=O)Oc1cc2c(c3c(C)csc13)[C@H](CCl)CN2C(=O)C12CC(C(=O)N3C[C@@H](CCl)c4c3cc(OC(C)=O)c3scc(C)c43)(C1)C2 [Compound 7, (8S,8'S)-(bicyclo[1.1.1]pentane-1,3-dicarbonyl)bis(8-(chloromethyl)-1-methyl-7,8-dihydro-6H-thieno[3,2-e]indole-6,4-diyl) diacetate] | < 0.005 | 0.022 | 0.185
2 | CC(=O)Oc1cc2c(c3c(C)csc13)[C@@H](CCl)CN2C(=O)C12CC(C(=O)N3C[C@H](CCl)c4c3cc(OC(C)=O)c3scc(C)c43)(C1)C2 [Compound 12, (8R,8'R)-(bicyclo[1.1.1]pentane-1,3-dicarbonyl)bis(8-(chloromethyl)-1-methyl-7,8-dihydro-6H-thieno[3,2-e]indole-6,4-diyl) diacetate] | 0.18 | 2.26 | 5.08
3 | CC(=O)Oc1cc2c(c3sc(C)cc13)[C@H](CCl)CN2C(=O)C12CC(C(=O)N3C[C@@H](CCl)c4c3cc(OC(C)=O)c3cc(C)sc43)(C1)C2 [Compound 17, bicyclo[1.1.1]pentane-1,3-diylbis[carbonyl(8S)-8-(chloromethyl)-2-methyl-7,8-dihydro-6H-thieno[2,3-e]indole-6,4-diyl] diacetate] | 0.084 | 1.3 | 6.06
4 | CC(=O)Oc1cc2c(c3c(C)csc13)[C@H](CCl)CN2C(=O)CCCC(=O)N1C[C@@H](CCl)c2c1cc(OC(C)=O)c1scc(C)c21 [Compound 24, (8S,8'S)-glutaroylbis(8-(chloromethyl)-1-methyl-7,8-dihydro-6H-thieno[3,2-e]indole-6,4-diyl) diacetate] | < 0.005 | 0.024 | 0.171
5 | CC(=O)Oc1cc2c(c3c(C)csc13)[C@@H](CCl)CN2C(=O)CCCC(=O)N1C[C@H](CCl)c2c1cc(OC(C)=O)c1scc(C)c21 [Compound 25, (8R,8'R)-glutaroylbis(8-(chloromethyl)-1-methyl-7,8-dihydro-6H-thieno[3,2-e]indole-6,4-diyl) diacetate] | – | 41.6 | > 100
6 | Cc1csc2c(O)cc3c(c12)[C@H](CCl)CN3C(=O)CCCC(=O)N1C[C@@H](CCl)c2c1cc(O[C@@H]1O[C@H](C(=O)O)[C@@H](O)[C@H](O)[C@H]1O)c1scc(C)c21 [Compound 57, (8S)-8-(chloromethyl)-6-{5-[(8S)-8-(chloromethyl)-4-hydroxy-1-methyl-7,8-dihydro-6H-thieno[3,2-e]indol-6-yl]-5-oxopentanoyl}-1-methyl-7,8-dihydro-6H-thieno[3,2-e]indol-4-yl beta-D-glucopyranosiduronic acid] | 0.873 | 11 | 37.6
7 | Cc1csc2c(O)cc3c(c12)[C@H](CCl)CN3C(=O)CCCC(=O)N1C[C@@H](CCl)c2c1cc(OP(=O)(O)O)c1scc(C)c21 [Compound 61, (8S)-8-(chloromethyl)-6-{5-[(8S)-8-(chloromethyl)-4-hydroxy-1-methyl-7,8-dihydro-6H-thieno[3,2-e]indol-6-yl]-5-oxopentanoyl}-1-methyl-7,8-dihydro-6H-thieno[3,2-e]indol-4-yl dihydrogen phosphate] | 0.806 | 13.6 | 28.6
